21 compounds from patent US7056935B2, “Rotamase enzyme activity inhibitors” (GPI NIL Holdings, Inc., priority 1995, dated 2006) can be followed below.

Where two headings read alike, the source gives them in different places.

Assay [1] concerns chick dorsal root ganglia (DRG) explants. Put plainly: Chick dorsal root ganglion cultures and neurite outgrowth. It is filed as cell-based. Particulars: read-out: ED50, nM Neurite Outgrowth in DRG Cultures. Here is the method: Dorsal root ganglia were dissected from chick embryos of ten day gestation. Whole ganglion explants were cultured on thin layer Matrigel-coated 12 well plates with Liebovitz L15 plus high glucose media supplemented with 2 mM glutamine and 10% fetal calf serum, and also containing 10 μM cytosine β-D arabinofuranoside (Ara C) at 37° C. in an environment containing 5% CO2. Twenty-four hours later, the DRGs were treated with various concentrations of nerve growth factor (NGF), immunophilin ligands or combinations of NGF plus drugs. Forty-eight hours after drug treatment, the ganglia were visualized under phase contrast or Hoffman Modulation contrast with a Zeiss Axiovert inverted microscope. Photomicrographs of the explants were made, and neurite outgrowth was quantitated. Neurites longer than the DRG diameter were counted as positive, with total number of neurites quantitated per each experimental condition. Three to four DRGs were cultured per well, and each treatment was performed in duplicate.

The target in a further assay is FKBP (Homo sapiens, UniProt P62942). Put plainly: Ki test procedure: inhibition of peptidyl-prolyl isomerase (rotamase) activity, chymotrypsin-coupled assay. It is filed as biochemical. Particulars: apparent Ki, substrate N-succinyl-Ala-Phe-Pro-Phe-p-nitroanilide.
Chain of FKBP (P62942 whole entry): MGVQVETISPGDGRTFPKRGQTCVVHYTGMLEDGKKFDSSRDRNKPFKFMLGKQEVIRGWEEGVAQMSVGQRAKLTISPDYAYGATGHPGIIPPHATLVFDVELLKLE
The mark [2] stands for this setting: drug alone, chick embryo DRG explants, 48 hours after drug treatment.

With `CCC(C)(C)C(=O)C(=O)N1CCC[C@H]1C(=O)OCCCc1cccnc1` [Compound 23, 3-(3-Pyridyl)-1-propyl (2S)-1-(3,3-dimethyl-1,2-dioxopentyl)-2-pyrrolidinecarboxylate], in assay [1] (Gallus gallus, 48 h), the EC50 is 0.05 nM.

For `CCC(C)(C)C(=O)C(=O)N1CCC[C@H]1C(=O)OCCCc1ccccc1` [Compound 17, 3-phenyl-1-propyl (2S)-1-(3,3-dimethyl-1,2-dioxopentyl)-2-pyrrolidinecarboxylate], the EC50 in assay [1] (Gallus gallus, 48 h) came out at 0.053 nM. For `COc1ccc(CCCCOC(=O)C2CCCCN2C(=O)C(=O)c2cc(OC)c(OC)c(OC)c2)cc1` [Compound 16, 4-(4-Methoxyphenyl)butyl (S)-N-(3,4,5-trimethoxyphenylglyoxyl)pipecolate], in assay [1] (Gallus gallus, 48 h), the EC50 amounted to 0.03 nM. Take `COc1cc(C(=O)C(=O)N2CCCCC2C(=O)OC(CCCc2ccccc2)CCc2cccnc2)cc(OC)c1OC` [Compound 30, 1-Phenyl-6-(3-pyridyl)-3-hexyl (S)-N-(3,4,5-trimethoxyphenylglyoxyl)pipecolate]: the EC50 in assay [1] (Gallus gallus, 48 h) is 0.95 nM.

`O=C(C(=O)N1CCCCC1C(=O)OCCc1ccccc1)c1ccccc1` (centres unmarked) [Compound 5, 2-Phenyl-1-ethyl N-(phenylglyoxyl)-2-piperidinecarboxylate]: the EC50 in assay [1] (Gallus gallus, 48 h) was 25 to 100 nM. Regarding `CCC(C)(C)C(=O)C(=O)N1CCC[C@H]1C(=O)OC/C=C/c1ccccc1` [Compound 18, 3-phenyl-1-prop-2-(E)-enyl (2S)-1-(3,3-dimethyl-1,2-dioxopentyl)-2-pyrrolidinecarboxylate], the EC50 in assay [1] (Gallus gallus, 48 h) was 105 nM. Consider `COc1cc(C(=O)C(=O)N2CCCCC2C(=O)OCCCCc2ccccc2)cc(OC)c1OC` [Compound 14, 4-Phenylbutyl (S)-N-(3,4,5-trimethoxyphenylglyoxyl)pipecolate], for which the EC50 in assay [1] (Gallus gallus, 48 h) fell in the range of 1 to 5 nM. Take `CCC(C)(C)C(=O)C(=O)N1CCC[C@H]1C(=O)OC/C=C/c1cc(OC)ccc1OC` [Compound 22, 3-(2,5-Dimethoxyphenyl)-1-prop-2(E)-enyl (2S)-1-(3,3-dimethyl-1,2-dioxopentyl)-2-pyrrolidinecarboxylate]: in assay [1] (Gallus gallus, 48 h), the EC50 was found to be 0.8 nM.

Turning to `CCC(C)(C)C(=O)C(=O)N1CCC[C@H]1C(=O)OCCCc1cc(OC)c(OC)c(OC)c1` [Compound 19, 3-(3,4,5-trimethoxyphenyl)-1-propyl (2S)-1-(3,3-dimethyl-1,2-dioxopentyl)-2-pyrrolidine-carboxylate], the Ki at FKBP (Table I) is 25 nM. Also, the EC50 in assay [1] (Gallus gallus, 48 h) worked out at 80 nM. For `COc1ccc(CCCCOC(=O)C2CCCCN2C(=O)C(=O)c2ccccc2)cc1` (centres unmarked) [Compound 3], in assay [1] (Gallus gallus, 48 h), the EC50 turned out to be 0.5 nM. In the case of `COC(=O)C(=O)N1CCCCC1C(=O)OCc1ccccc1` (centres unmarked) [Compound 7, Benzyl N-(methoxyglyoxyl)-2-piperidinecarboxylate], in assay [1] (Gallus gallus, 48 h), the EC50 is over 10000 nM. As to `O=C(C(=O)N1CCCCC1C(=O)OC(CCCc1ccccc1)CCCc1ccccc1)c1ccccc1` (centres unmarked) [Compound 28], the EC50 in assay [1] (setting [2]) is 0.0044 nM.

Take `CCC(C)(C)C(=O)C(=O)N1CCC[C@H]1C(=O)OC/C=C/c1ccc(Cl)c(Cl)c1` [Compound 21, 3-(4,5-Dichlorophenyl)-1-prop-2-(E)-enyl (2S)-1-(3,3-dimethyl-1,2-dioxopentyl)-2-pyrrolidine carboxylate]: on FKBP (Table I), the Ki was 2500 nM. Further, the EC50 in assay [1] (Gallus gallus, 48 h) was 85 nM. In the case of `COc1cc(C(=O)C(=O)N2CCCCC2C(=O)OC(CCCc2ccccc2)CCCc2ccccc2)cc(OC)c1OC` [Compound 29, 1,7-Diphenyl-4-heptyl (S)-N-(3,4,5-trimethoxyphenylglyoxyl)pipecolate], the EC50 in assay [1] (setting [2]) is recorded as 0.61 nM. `COc1ccc(CCCC(CCCc2ccccc2)OC(=O)C2CCCCN2C(=O)C(=O)c2cc(OC)c(OC)c(OC)c2)cc1` [Compound 32, 1-Phenyl-7-(4-methoxyphenyl)-4-heptyl (S)-N-(3,4,5-trimethoxyphenylglyoxyl)-pipecolate]: the Ki on FKBP (Table II) came out at 3 nM. For the same compound, the EC50 in assay [1] (Gallus gallus, 48 h) came to 0.5 nM. With `O=C(C(=O)N1CCCCC1C(=O)OCCCCc1ccccc1)c1ccccc1` (centres unmarked) [Compound 4, 4-Phenyl-1-butyl N-(phenylglyoxyl)-2-piperidinecarboxylate], the EC50 in assay [1] (Gallus gallus, 48 h) is 25 to 100 nM. With `COc1cc(C(=O)C(=O)N2CCCCC2C(=O)OC(CCCc2ccccc2)CCCc2ccccn2)cc(OC)c1OC` [Compound 31, 1-Phenyl-7-(2-pyridyl)-4-heptyl (S)-N-(3,4,5-trimethoxyphenylglyoxyl)pipecolate], on FKBP (Table II), the Ki amounted to 1 nM. For the same compound, the EC50 in assay [1] (Gallus gallus, 48 h) is 25 nM. In the case of `O=C(C(=O)N1CCCCC1C(=O)OCCCc1ccccc1)c1ccccc1` (centres unmarked) [Compound 2, 3-Phenyl-1-propyl N-(phenylglyoxyl)-2-piperidinecarboxylate], the EC50 in assay [1] (Gallus gallus, 48 h) is 10 to 20 nM.

For the compound `O=C(C(=O)N1CCC[C@H]1C(=O)OCCCc1ccccc1)C1CCCCC1` [Compound 24, 3-Phenyl-1-propyl (2S)-1-(cyclohexylglyoxyl)-2-pyrrolidinecarboxylate], the EC50 in assay [1] (Gallus gallus, 48 h) was 0.13 nM. As to `CCC(C)(C)C(=O)C(=O)N1CCC[C@H]1C(=O)OC/C=C/c1cc(OC)c(OC)c(OC)c1` [Compound 20, 3-(3,4,5-trimethoxyphenyl)-1-prop-2-(E)-enyl (2S)-1-(3,3-dimethyl-1,2-dioxopentyl)-2-pyrrolidine carboxylate], the Ki at FKBP (Table I) worked out at 125 nM. The EC50 in assay [1] (Gallus gallus, 48 h) came to 190 nM. `O=C(C(=O)N1CCCCC1C(=O)OCc1ccccc1)c1ccccc1` (centres unmarked) [Compound 1, Benzyl N-(phenylglyoxyl)-2-piperidinecarboxylate]: the EC50 in assay [1] (Gallus gallus, 48 h) lay within 25 to 100 nM.
